# US20170348213A1, “Oral Care Composition” (Colgate-Palmolive Company, priority 2014, published 2017)
# What was measured:
# [1] = Antioxidant activity, LPO-CC kit (Kamiya Biomedical Company); type: biochemical; settings: agent at 1% in ethanol
# Procedure: The antioxidant activity of rutin was tested using an LPO-CC kit (Kamiya Biomedical Company), and compared to that of vitamin E. (The agents were tested in an amount of 1% in ethanol). The lower the optical density, the better the antioxidant capacity. The higher the percentage cumeme hydroperoxide reduction, the better the antioxidant capacity. The antioxidant efficacy of the formulations was also tested using the methods described in Example 5. The results are illustrated in Table 9a and 9b.
# oral mucosal cells = experiment: Cell irritating effect on oral mucosal cells (Janus Green B staining, optical microscope); type: cell-based; settings: aqueous solution
# Procedure: Aqueous solutions of different concentrations of sodium […] (SLS) and sodium methyl cocoyl taurate (SMCT) were prepared. The solutions were used to challenge oral mucosal cells. Treated cells were stained with Janus Green B and morphological changes were observed using an optical microscope to determine whether or not the cells had become irritated or remained intact. Cells were identified as normal if the cells were in tact, the cell wall was smooth, the color of the cell core was clear/dark, and if organelles could be identified. Cells were identified as irritated if the cells could not be clearly defined with a blurring of the cell wall, if there was crimping of the cell, if the color of the cell core and plasma is lighter than observed for an intact cell, and if organelles could not be identified. […]
Substance,% reduction of cumeme hydroperoxide ([1]; higher = better antioxidant capacity) [%],Optical Density at 675 nm ([1]; lower optical density = better antioxidant capacity),Cell irritating effects of aqueous surfactant solutions: Results (oral mucosal cells; 0.48 % active weight surfactant),Cell irritating effects of aqueous surfactant solutions: Results (oral mucosal cells; 1.40 % active weight surfactant),Cell irritating effects of aqueous surfactant solutions: Results (oral mucosal cells; 1.71 % active weight surfactant),Cell irritating effects of aqueous surfactant solutions: Results (oral mucosal cells; 2.20 % active weight surfactant)
vitamin E,50.4719,0.2204,–,–,–,–
sodium lauryl ether sulfate [SLS],–,–,No cell irritation,Cells irritated,Cells irritated,Cells irritated
